Type in all cases: cell-based
The target in one experiment is T1, GLP-1R (INS1e assay) (Rattus norvegicus, UniProt P32301).
T1 construct: endogenous in cells; host or cells: INS-1E cells
T1 sequence (P32301 22-463): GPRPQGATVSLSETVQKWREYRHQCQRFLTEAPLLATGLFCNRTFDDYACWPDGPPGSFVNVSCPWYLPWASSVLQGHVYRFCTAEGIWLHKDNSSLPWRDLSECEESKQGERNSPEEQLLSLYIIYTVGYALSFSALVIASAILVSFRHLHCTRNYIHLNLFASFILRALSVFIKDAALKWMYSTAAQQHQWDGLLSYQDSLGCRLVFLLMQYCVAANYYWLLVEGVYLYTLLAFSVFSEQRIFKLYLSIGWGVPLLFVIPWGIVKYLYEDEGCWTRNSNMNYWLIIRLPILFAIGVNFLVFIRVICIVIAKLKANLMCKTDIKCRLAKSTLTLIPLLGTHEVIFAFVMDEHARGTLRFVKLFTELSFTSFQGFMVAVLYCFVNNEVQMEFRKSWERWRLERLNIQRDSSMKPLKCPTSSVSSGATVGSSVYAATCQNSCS
The experiment can be described thus: INS1e assay, cAMP activity at GLP-1R. The settings on record: mono-lipidated peptides. In short, it runs like this: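 It pairs cAMP-d2 acceptor with anti-cAMP cryptate donor, both prepared 1/20 in conjugate/lysis buffer, applied as a two-step protocol.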

The target of experiment [1] is T2, human glucagon receptor (GCGR) (Homo sapiens, UniProt P47871).
T2 construct: expressed in transfected cells
The experiment can be described thus: cAMP assay, human GCGR cells. The settings on record: cAMP assay. The gist of the method:
(§1)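 Peptide-stimulated cAMP measured by two-step HTRF after a 30 min room-temperature incubation with receptor-expressing cells (hGLP-1R, hGIPR at 1×10^5 cells/ml; hGCGR at 2×10^5 cells/ml). Duplicate dilutions; EC50 from 4-parameter logistic fit of % Delta F.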

The target of experiment [2] is T3, human GLP-1 receptor (GLP-1R) (Homo sapiens, UniProt P43220).
T3 construct: expressed in transfected cells
The experiment can be described thus: cAMP assay, human GLP-1R cells. The gist of the method: as §1
For orientation: cAMP levels reflect the balance of adenylyl cyclase and phosphodiesterase activity.

Experiment [3] deals with T4, human glucose-dependent insulinotropic peptide receptor (GIPR) (Homo sapiens, UniProt P48546).
T4 construct: expressed in transfected cells
T4 sequence (P48546 22-466): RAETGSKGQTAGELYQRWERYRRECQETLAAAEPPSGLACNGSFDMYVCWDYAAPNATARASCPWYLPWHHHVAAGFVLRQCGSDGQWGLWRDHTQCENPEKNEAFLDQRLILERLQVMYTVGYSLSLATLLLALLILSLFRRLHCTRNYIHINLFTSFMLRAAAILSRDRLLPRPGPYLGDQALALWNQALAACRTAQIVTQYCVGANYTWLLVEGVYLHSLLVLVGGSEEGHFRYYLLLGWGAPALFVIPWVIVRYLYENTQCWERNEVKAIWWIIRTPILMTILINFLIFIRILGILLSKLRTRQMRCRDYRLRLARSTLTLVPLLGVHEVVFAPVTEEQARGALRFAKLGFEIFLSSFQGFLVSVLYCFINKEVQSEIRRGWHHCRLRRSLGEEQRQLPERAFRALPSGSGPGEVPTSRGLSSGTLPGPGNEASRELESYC
Kind of experiment: cAMP assay, human GIPR cells. As to conditions: cAMP assay. In short, it runs like this:
as §1

Setting [4] is: mean of n1 and n2, read-out: INS1e assay EC50 Mean pM GLP-1R.
The mark [5] stands for this setting: replicate n1, read-out: INS1e assay EC50 GLP-1R n1.
Setting [6] is: replicate n2, read-out: INS1e assay EC50 GLP-1R n2.
[7] abbreviates: first determination (n1), read-out: Primary assay EC50 Gluc-R (n1).
Where [8] appears, read: second determination (n2), read-out: Primary assay EC50 Gluc-R (n2).
Setting [9] is: cAMP assay, first determination (n1), read-out: Primary assay EC50 GLP-1R n1.
Setting [10] is: cAMP assay, second determination (n2), read-out: Primary assay EC50 GLP-1R n2.
Setting [11] is: mean of n1 and n2, read-out: Mean pM GLP-1R.
Where [12] appears, read: first determination (n1), read-out: Primary assay EC50 GIP-R (n1).
[13] abbreviates: second determination (n2), read-out: Primary assay EC50 GIP-R (n2).

The structures appear in SMILES notation. Read-outs that look alike come from different tables or passages of the source. Square brackets hold non-standard residues; d marks the D form. Side chains are listed from the residue outwards. Peptide text beside a SMILES is read from it. * marks the point of attachment. Stearoyl = CCCCCCCCCCCCCCCCCC(=O)*; αMeF = C[C@](N)(Cc1ccccc1)C(=O)O; αMeK = C[C@](N)(CCCCN)C(=O)O; αMeS = C[C@](N)(CO)C(=O)O; AEEA = NCCOCCOCC(=O)O; Aib = CC(C)(N)C(=O)O

T2 sequence (P47871 26-477): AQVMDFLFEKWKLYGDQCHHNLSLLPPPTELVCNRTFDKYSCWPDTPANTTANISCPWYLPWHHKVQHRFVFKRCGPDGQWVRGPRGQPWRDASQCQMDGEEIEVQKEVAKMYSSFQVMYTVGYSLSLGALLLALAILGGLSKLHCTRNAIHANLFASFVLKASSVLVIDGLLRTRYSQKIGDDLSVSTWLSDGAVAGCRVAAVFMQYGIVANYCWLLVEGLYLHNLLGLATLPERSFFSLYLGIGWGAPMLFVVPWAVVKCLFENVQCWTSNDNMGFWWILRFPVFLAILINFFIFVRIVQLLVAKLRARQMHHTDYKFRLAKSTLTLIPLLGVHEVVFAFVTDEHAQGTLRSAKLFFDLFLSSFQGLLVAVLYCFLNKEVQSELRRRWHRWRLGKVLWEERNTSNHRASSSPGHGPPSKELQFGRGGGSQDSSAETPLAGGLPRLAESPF
T3 sequence (P43220 24-463): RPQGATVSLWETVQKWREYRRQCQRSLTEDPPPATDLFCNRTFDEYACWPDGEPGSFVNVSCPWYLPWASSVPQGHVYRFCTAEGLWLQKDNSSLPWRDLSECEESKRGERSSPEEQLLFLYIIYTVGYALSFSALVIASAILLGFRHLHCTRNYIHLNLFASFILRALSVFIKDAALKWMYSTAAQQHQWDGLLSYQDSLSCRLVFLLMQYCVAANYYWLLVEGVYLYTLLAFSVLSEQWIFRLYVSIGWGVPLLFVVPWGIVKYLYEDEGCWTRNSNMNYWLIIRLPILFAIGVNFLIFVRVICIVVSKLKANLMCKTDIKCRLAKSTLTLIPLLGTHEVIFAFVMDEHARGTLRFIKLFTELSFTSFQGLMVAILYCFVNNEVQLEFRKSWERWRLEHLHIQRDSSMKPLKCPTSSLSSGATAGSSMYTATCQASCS

`CC[C@H](C)[C@H](NC(=O)[C@](C)(Cc1ccccc1)NC(=O)[C@H](CCC(=O)O)NC(=O)[C@H](CCC(=O)O)NC(=O)[C@H](C)NC(=O)[C@H](C)NC(=O)[C@H](CCC(=O)O)NC(=O)CNC(=O)[C@H](CCC(=O)O)NC(=O)[C@H](CC(C)C)NC(=O)[C@](C)(Cc1ccccc1)NC(=O)[C@H](CO)NC(=O)[C@](C)(CO)NC(=O)[C@@H](NC(=O)[C@H](CC(=O)O)NC(=O)[C@H](CO)NC(=O)[C@@H](NC(=O)[C@](C)(Cc1ccccc1)NC(=O)[C@H](CO)NC(=O)CNC(=O)[C@H](CCC(=O)O)NC(=O)C(C)(C)NC(=O)[C@@H](N)Cc1c[nH]cn1)[C@@H](C)O)C(C)C)C(=O)N[C@@H](C)C(=O)N[C@@](C)(Cc1ccccc1)C(=O)N[C@H](C(=O)N[C@H](C(=O)N[C@@](C)(CCCCN)C(=O)NCC(=O)NCC(N)=O)C(C)C)C(C)C` [compound 42] (H-H[Aib]EGS[αMeF]TSDV[αMeS]S[αMeF]LEGEAAEE[αMeF]IA[αMeF]VV[αMeK]GG-NH2): the EC50 is 187 pM at GLP-1R (INS1e assay) (setting [4]); 207 pM at GLP-1R (INS1e assay) (setting [5]); 167 pM at GLP-1R (INS1e assay) (setting [6]); no less than 31 nM in experiment [1] (setting [7]); no less than 31 nM in experiment [1] (setting [8]); 6.9 pM in experiment [2] (setting [9]). The EC50 in experiment [2] (setting [10]) is 11 pM; in experiment [2] (setting [11]) it was 8.7 pM; in experiment [3] (setting [12]), no less than 31 nM; in experiment [3] (setting [13]) it was no less than 31 nM.

For the compound `CC[C@H](C)[C@H](NC(=O)[C@](C)(Cc1ccccc1)NC(=O)[C@H](CCC(=O)O)NC(=O)[C@H](CCCCNC(=O)COCCOCCNC(=O)COCCOCCNC(=O)CC[C@H](NC(=O)CCCCCCCCCCCCCCCCC(=O)O)C(=O)O)NC(=O)[C@H](C)NC(=O)[C@H](C)NC(=O)[C@H](CCC(=O)O)NC(=O)CNC(=O)[C@H](CCC(=O)O)NC(=O)[C@H](CC(C)C)NC(=O)[C@](C)(Cc1ccccc1)NC(=O)[C@H](CO)NC(=O)[C@](C)(CO)NC(=O)[C@@H](NC(=O)[C@H](CC(=O)O)NC(=O)[C@H](CO)NC(=O)[C@@H](NC(=O)[C@H](Cc1ccccc1)NC(=O)[C@H](CO)NC(=O)CNC(=O)[C@H](CCC(=O)O)NC(=O)C(C)(C)NC(=O)[C@@H](N)Cc1c[nH]cn1)[C@@H](C)O)C(C)C)C(=O)N[C@@H](C)C(=O)N[C@@](C)(Cc1ccccc1)C(=O)N[C@H](C(=O)N[C@H](C(=O)N[C@@](C)(CCCCN)C(=O)NCC(=O)NCC(N)=O)C(C)C)C(C)C` [compound 45], the EC50 is 94600 pM at GLP-1R (INS1e assay) (setting [4]); 76100 pM on GLP-1R (INS1e assay) (setting [5]); 113000 pM on GLP-1R (INS1e assay) (setting [6]); no less than 26 nM in experiment [1] (setting [7]); no less than 26 nM in experiment [1] (setting [8]); 3800 pM in experiment [2] (setting [9]). Moreover, the EC50 in experiment [2] (setting [10]) is 3300 pM; in experiment [2] (setting [11]), 3560 pM; in experiment [3] (setting [12]) it was no less than 26 nM; in experiment [3] (setting [13]) it was no less than 26 nM.

Regarding `CC[C@H](C)[C@H](NC(=O)[C@](C)(Cc1ccccc1)NC(=O)[C@H](CCC(=O)O)NC(=O)[C@H](CCCCNC(=O)COCCOCCNC(=O)COCCOCCNC(=O)CC[C@H](NC(=O)CCCCCCCCCCCCCCCCC(=O)O)C(=O)O)NC(=O)[C@H](C)NC(=O)[C@H](C)NC(=O)[C@H](CCC(=O)O)NC(=O)CNC(=O)[C@H](CCC(=O)O)NC(=O)[C@H](CC(C)C)NC(=O)[C@](C)(Cc1ccccc1)NC(=O)[C@H](CO)NC(=O)[C@](C)(CO)NC(=O)[C@@H](NC(=O)[C@H](CC(=O)O)NC(=O)[C@H](CO)NC(=O)[C@@H](NC(=O)[C@](C)(Cc1ccccc1)NC(=O)[C@H](CO)NC(=O)CNC(=O)[C@H](CCC(=O)O)NC(=O)C(C)(C)NC(=O)[C@@H](N)Cc1c[nH]cn1)[C@@H](C)O)C(C)C)C(=O)N[C@@H](C)C(=O)N[C@@](C)(Cc1ccccc1)C(=O)N[C@H](C(=O)N[C@H](C(=O)N[C@@H](CCCCN)C(=O)NCC(=O)NCC(N)=O)C(C)C)C(C)C` [compound 50], the EC50 at GLP-1R (INS1e assay) (setting [4]) is 32400 pM; on GLP-1R (INS1e assay) (setting [5]) it was 22100 pM; on GLP-1R (INS1e assay) (setting [6]) it was 42600 pM; in experiment [1] (setting [7]) it was no less than 26 nM; in experiment [2] (setting [9]) it was 170 pM; in experiment [2] (setting [10]) it was 260 pM. Moreover, the figures for the EC50 in experiment [2] (setting [11]) and in experiment [3] (setting [12]) were 216 pM and no less than 26 nM, respectively.

With `CCCCCCCCCCCCCCCCCC(=O)NCCOCCOCC(=O)NCCOCCOCC(=O)NCCOCCOCC(=O)NCCCC[C@H](NC(=O)[C@H](C)NC(=O)[C@H](C)NC(=O)[C@H](CCC(=O)O)NC(=O)CNC(=O)[C@H](CCC(=O)O)NC(=O)[C@H](CC(C)C)NC(=O)[C@](C)(Cc1ccccc1)NC(=O)[C@H](CO)NC(=O)[C@H](CO)NC(=O)[C@@H](NC(=O)[C@H](CC(=O)O)NC(=O)[C@H](CO)NC(=O)[C@@H](NC(=O)[C@](C)(Cc1ccccc1)NC(=O)[C@H](CO)NC(=O)CNC(=O)[C@H](CCC(=O)O)NC(=O)C(C)(C)NC(=O)[C@@H](N)Cc1c[nH]cn1)[C@@H](C)O)C(C)C)C(=O)N[C@@H](CCC(=O)O)C(=O)N[C@@](C)(Cc1ccccc1)C(=O)N[C@H](C(=O)N[C@@H](C)C(=O)N[C@@](C)(Cc1ccccc1)C(=O)N[C@H](C(=O)N[C@H](C(=O)N[C@@](C)(CCCCN)C(=O)NCC(=O)NCC(N)=O)C(C)C)C(C)C)[C@@H](C)CC` [compound 52], the EC50 at GLP-1R (INS1e assay) (setting [5]) is 21.4 pM; in experiment [1] (setting [7]), no less than 26 nM; in experiment [1] (setting [8]), no less than 26 nM; in experiment [2] (setting [9]), 1.5 pM; in experiment [2] (setting [10]), 2.5 pM; in experiment [2] (setting [11]), 2 pM. Besides, the EC50 in experiment [3] (setting [12]) and in experiment [3] (setting [13]) was no less than 26 nM throughout.

For `CCCCCCCCCCCCCCCCCC(=O)NCCOCCOCC(=O)NCCOCCOCC(=O)NCCOCCOCC(=O)NCCCC[C@H](NC(=O)[C@H](C)NC(=O)[C@H](C)NC(=O)[C@H](CCC(=O)O)NC(=O)CNC(=O)[C@H](CCC(=O)O)NC(=O)[C@H](CC(C)C)NC(=O)[C@](C)(Cc1ccccc1)NC(=O)[C@H](CO)NC(=O)[C@](C)(CO)NC(=O)[C@@H](NC(=O)[C@H](CC(=O)O)NC(=O)[C@H](CO)NC(=O)[C@@H](NC(=O)[C@](C)(Cc1ccccc1)NC(=O)[C@H](CO)NC(=O)CNC(=O)[C@H](CCC(=O)O)NC(=O)C(C)(C)NC(=O)[C@@H](N)Cc1c[nH]cn1)[C@@H](C)O)C(C)C)C(=O)N[C@@H](CCC(=O)O)C(=O)N[C@@](C)(Cc1ccccc1)C(=O)N[C@H](C(=O)N[C@@H](C)C(=O)N[C@@H](Cc1c[nH]c2ccccc12)C(=O)N[C@H](C(=O)N[C@H](C(=O)N[C@@](C)(CCCCN)C(=O)NCC(=O)NCC(N)=O)C(C)C)C(C)C)[C@@H](C)CC` [compound 55] (H-H[Aib]EGS[αMeF]TSDV[αMeS]S[αMeF]LEGEAAK([AEEA-AEEA-AEEA-Stearoyl])E[αMeF]IAWVV[αMeK]GG-NH2), the EC50 on GLP-1R (INS1e assay) (setting [4]) is 11 pM; at GLP-1R (INS1e assay) (setting [5]), 12.5 pM; on GLP-1R (INS1e assay) (setting [6]), 10.1 pM; in experiment [1] (setting [7]), no less than 25 nM; in experiment [1] (setting [8]) it was no less than 25 nM; in experiment [2] (setting [9]) it was 1.4 pM. Moreover, the EC50 in experiment [2] (setting [10]) was 2.3 pM; in experiment [2] (setting [11]) it was 1.8 pM; in experiment [3] (setting [12]) it was no less than 25 nM; in experiment [3] (setting [13]) it was no less than 25 nM.

Source of the values: patent US10414811B2, “Protease-resistant lipidated GLP-1 analogs” (MEDIMMUNE LIMITED, priority 2015, dated 2019).
